Assay [1] is described as follows: Inhibition of chymotrypsin at 150 uM.
A short description of assay [2]: Inhibition of chymotrypsin at 10 uM.

Activity calls are given as the source filed them. The rule behind the calls is not given here. Numbered stars: 1 amine (or outer) side, 2 acyl side, 3 side chain; on linkers, the order of the positions; unused ones are H or OH. Bridge positions count the residues as written; N and C are the ends. Square brackets hold non-standard residues; d marks the D form. Peptide text beside a SMILES is read from it. hTyr = N[C@@H](CCc1ccc(O)cc1)C(=O)O; aIle = CC[C@@H](C)[C@H](N)C(=O)O; NMeA = CN[C@@H](C)C(=O)O; CO = O=C([*:1])[*:2]

Take `CC[C@@H](C)[C@@H]1NC(=O)[C@H](NC(=O)N[C@@H](Cc2c[nH]c3ccccc23)C(=O)O)CCCCNC(=O)[C@H](Cc2ccccc2)NC(=O)[C@H](C)N(C)C(=O)[C@H](CCc2ccc(O)cc2)NC1=O`: in assay [1], the outcome was inactive.
On the same count and under the same terms, the result for `CC(C)[C@@H]1NC(=O)[C@H](NC(=O)N[C@@H](Cc2c[nH]c3ccccc23)C(=O)O)CCCCNC(=O)[C@H](Cc2ccccc2)NC(=O)[C@H](C)N(C)C(=O)[C@H](CCc2ccc(O)cc2)NC1=O` ({Trp-CO}-[dK]V[hTyr][NMeA]F; lactam 1-C) reads “inactive”.
Consider `CC[C@@H](C)[C@@H]1NC(=O)[C@H](NC(=O)N[C@@H](Cc2ccc(O)cc2)C(=O)O)CCCCNC(=O)[C@H](Cc2ccccc2)NC(=O)[C@H](C)N(C)C(=O)[C@H](CCc2ccc(O)cc2)NC1=O` ({Tyr-CO}-[dK][aIle][hTyr][NMeA]F; lactam 1-C), for which the outcome in assay [2] was Active.

The values above are taken from ChEMBL document CHEMBL1158206, “Ferintoic Acids A and B, New Cyclic Hexapeptides from the Freshwater Cyanobacterium Microcystis aeruginosa” (J Nat Prod, 1996).
